{"source": "patent US7932291B2", "about": "“Use of L-carnitine and its alkanoyl derivatives as osmotic agents in solutions for medical use” (Sigma-Tau Industrie Farmaceutiche Riunite S.p.A., priority 1999, dated 2011)", "system": "male Sprague-Dawley rats", "experiment": "In-vivo peritoneal dialysis in rats: fluid volume recovered from the peritoneum", "design": "species or system rat", "protocol": "The peritoneal dialysis experiment was conducted in male Sprague-Dawley rats weighing 500-600 g (Charles River) maintained on a standard diet with water ad libitum. The animals were anaesthetized with an intraperitoneal injection of inactin (100 mg/kg) and were placed on an operating table at controlled temperature. The animals were submitted to a tracheostomy to cannulate the left jugular vein with a PESO medical silicone tube. Thirty minutes after administration of the anaesthetic the animals were infused with a saline solution at a rate of 2.3 ml/h throughout the period of the experiment. The dialysis solution (15 ml), after preheating to 37° C., was inoculated into the peritoneal cavity with a 15 teflon needle-cannula 1 h after administration of the anaesthetic. The amount of fluid injected was determined by weighing the syringe before and after injection of the fluid, using an electronic scale. At the end of each analysis period (2, 4 and 6 h), incisions were made in the rats' abdomens with an acusector and all the fluid present in the peritoneum was aspirated with a 1 ml syringe. After removing the surface fluid, the intestines were carefully shifted from the abdominal cavity to collect the residual fluid remaining on the dorsal wall. The fluid recovered was placed in a beaker and weighed. […]", "data": [{"smiles": "C[N+](C)(C)C[C@H](O)CC(=O)[O-]", "note": "[Carnitine, L-carnitine]", "values": [{"measurement": "Quality as osmotic agent compared with glucose", "setting": "rat peritoneal dialysis, 1.5-4.25%", "value": "at least as good as glucose"}, {"measurement": "Time by which the increase in intraperitoneal fluid volume is completed / peak activity reached", "setting": "rat, all concentrations used (1.5, 2.5, 4.25%)", "value": "≤ 2", "unit": "h"}]}]}
